The values that follow come from patent publication US6809065B2, “Herbicide containing substituted pyrazole derivative as active ingredient” (SDS Biotech K.K., priority 2001, dated 2004).

Series [1] deals with Echinochloa spp. In words: Paddy field treatment (Test Example 3). It is filed as in vivo, Echinochloa crusgalli. The conditions noted are these: paddy pot, submerged 4 cm, dropped on water surface 10th day after transplantation, 1 kg active ingredient per hectare, evaluated 21st day. How it is done:
(§1) In the above evaluation criteria, the term “herbicidal effect” means evaluation to the objective weeds, and a higher index of the evaluation criteria means higher herbicidal effect on the objective weeds. On the other hand, a lower index of the evaluation criteria for the crops means higher safety to the crops. A plastic pot of 130 cm^2 was filled with paddy soil, and soil puddling was carried out to adjust the submerged depth to 4 cm. Then, seeds of Echinochloa crusgalli, Monochoria vaginalis, Ammannia multiflora and Scirpus juncoides were sowed, and rice (Oryza […], variety: Koshihikari) of two-leaf period was transplanted by 2 rice plants of 1 stub per pot at a depth of 3 cm. On the 10th day after the transplantation, a wettable powder composition was prepared in accordance with Formulation Example 1, diluted with water in such an amount that the amount of the active ingredient became 1 kg per hectare, and then dropped to diffuse on the water surface. On the 21st day after the dropping, observation and evaluation were carried out according to the aforesaid criteria.

The subject of series [2] is Stellaria media. In words: Upland field foliage treatment (Test Example 1). It is filed as in vivo. Particulars: foliage treatment 14th day after sowing, wettable powder, 1 kg active ingredient per hectare, evaluated 21st day after application. An excerpt:
(§2) In the above evaluation criteria, the term “herbicidal effect” means evaluation to the objective weeds, and a higher index of the evaluation criteria means higher herbicidal effect on the objective weeds. On the other hand, a lower index of the evaluation criteria for the crops means higher safety to the crops. A plastic pot of 130 cm^2 was filled with upland soil. Then, seeds of weeds, namely, Setaria viridis, Digitaria adscendens, Chenopodium album and Stellaria media, and seeds of crops, namely, soybean (Glycine max) and wheat (Triticum aestivum), were sowed and covered with soil of about 1 cm thick. On the 14th day after the sowing, a wettable powder composition was prepared in accordance with Formulation Example 1, diluted with water in such an amount that the amount of the active ingredient became 1 kg per hectare, and then uniformly applied to the plant leaf surfaces. On the 21st day after the application, observation and evaluation were carried out according to the aforesaid criteria.

Series [3] concerns Setaria viridis. Kind of series: Upland field foliage treatment (Test Example 1). It is filed as in vivo. Particulars: foliage treatment 14th day after sowing, wettable powder, 1 kg active ingredient per hectare, evaluated 21st day after application.
Source text: as §2

Series [4] deals with Chenopodium album. In words: Upland field foliage treatment (Test Example 1). The conditions noted are these: foliage treatment 14th day after sowing, wettable powder, 1 kg active ingredient per hectare, evaluated 21st day after application. Format: in vivo.
Source text: as §2

Series [5] deals with Digitaria adscendens. Kind of series: Upland field foliage treatment (Test Example 1). It is filed as in vivo. The conditions noted are these: foliage treatment 14th day after sowing, wettable powder, 1 kg active ingredient per hectare, evaluated 21st day after application.
Source text: as §2

Series [6] concerns wheat (Triticum aestivum). In words: Upland soil treatment (Test Example 2), crop. Format: in vivo. Particulars: soil surface treatment next day after sowing, 1 kg active ingredient per hectare, evaluated 21st day, lower index = higher safety. From the text:
(§3) In the above evaluation criteria, the term “herbicidal effect” means evaluation to the objective weeds, and a higher index of the evaluation criteria means higher herbicidal effect on the objective weeds. On the other hand, a lower index of the evaluation criteria for the crops means higher safety to the crops. A plastic pot of 130 cm^2 was filled with upland soil. Then, seeds of weeds, namely, Setaria viridis, Digitaria adscendens, Chenopodium album and Stellaria media, and seeds of crops, namely, soybean (Glycine max) and wheat (Triticum aestivum), were sowed and covered with soil of about 1 cm thick. On the next day after the sowing, a wettable powder composition was prepared in accordance with Formulation Example 1, diluted with water in such an amount that the amount of the active ingredient became 1 kg per hectare, and then uniformly applied to the soil surface. On the 21st day after the application, observation and evaluation were carried out according to the aforesaid criteria.

In series [7] the test system is soybean (Glycine max). In words: Upland soil treatment (Test Example 2), crop. Format: in vivo. The conditions noted are these: soil surface treatment next day after sowing, 1 kg active ingredient per hectare, evaluated 21st day, lower index = higher safety.
Source text: as §3

The subject of series [8] is Stellaria media. In words: Upland soil treatment (Test Example 2). It is filed as in vivo. The conditions noted are these: soil surface treatment next day after sowing, wettable powder, 1 kg active ingredient per hectare, evaluated 21st day after application.
Source text: as §3

Series [9] relates to Setaria viridis. Kind of series: Upland soil treatment (Test Example 2). Format: in vivo. The conditions noted are these: soil surface treatment next day after sowing, wettable powder, 1 kg active ingredient per hectare, evaluated 21st day after application.
Source text: as §3

Series [10] deals with Chenopodium album. Kind of series: Upland soil treatment (Test Example 2). It is filed as in vivo. The conditions noted are these: soil surface treatment next day after sowing, wettable powder, 1 kg active ingredient per hectare, evaluated 21st day after application.
Source text: as §3

Series [11] relates to Digitaria adscendens. Kind of series: Upland soil treatment (Test Example 2). Format: in vivo. The conditions noted are these: soil surface treatment next day after sowing, wettable powder, 1 kg active ingredient per hectare, evaluated 21st day after application.
Source text: as §3

The subject of series [12] is wheat (Triticum aestivum). Kind of series: Upland field foliage treatment (Test Example 1), crop. It is filed as in vivo. Particulars: foliage treatment 14th day after sowing, 1 kg active ingredient per hectare, evaluated 21st day, lower index = higher safety.
Source text: as §2

Series [13] deals with soybean (Glycine max). Described as above. Format: in vivo. Particulars: foliage treatment 14th day after sowing, 1 kg active ingredient per hectare, evaluated 21st day, lower index = higher safety.
Source text: as §2

The subject of series [14] is Ammannia multiflora. Kind of series: Paddy field treatment (Test Example 3). Format: in vivo. The conditions noted are these: paddy pot, submerged 4 cm, dropped on water surface 10th day after transplantation, 1 kg active ingredient per hectare, evaluated 21st day. The procedure: as §1
In series [15] the test system is Monochoria vaginalis. Kind of series: Paddy field treatment (Test Example 3). Particulars: paddy pot, submerged 4 cm, dropped on water surface 10th day after transplantation, 1 kg active ingredient per hectare, evaluated 21st day. Format: in vivo. How it is done: as §1
The subject of series [16] is Scirpus juncoides. Kind of series: Paddy field treatment (Test Example 3). Format: in vivo. The conditions noted are these: paddy pot, submerged 4 cm, dropped on water surface 10th day after transplantation, 1 kg active ingredient per hectare, evaluated 21st day. The procedure:
as §1

For series [17], the system named is rice (Oryza sative, variety: Koshihikari). In words: Paddy field treatment (Test Example 3), crop. Format: in vivo, Oryza sativa. Particulars: transplanted rice two-leaf period, water surface treatment 10th day after transplantation, 1 kg active ingredient per hectare, evaluated 21st day, lower index = higher safety. The procedure:
as §1

Molecules are shown by their SMILES.

Consider `COC=C(Cn1nc(-c2ccccc2Cl)cc1C)C(=O)OC` [Compound 4], for which the “Herbicidal activity Echinochloa spp.” value in [1] was 4 (herbicidal effect of not less than 70% by weight and less than 90% by weight). Besides, the “Herbicidal activity Stellaria media” value in [2] was 4 (herbicidal effect of not less than 70% by weight and less than 90% by weight); in [8] it was 4 (herbicidal effect of not less than 70% by weight and less than 90% by weight). In addition, the “Herbicidal activity Setaria viridis” value in series [3] was 4 (herbicidal effect of not less than 70% by weight and less than 90% by weight); in series [9], 4 (herbicidal effect of not less than 70% by weight and less than 90% by weight). For the same compound, the “Herbicidal activity Chenopodium album” value was 5 (herbicidal effect of not less than 90% by weight) in series [4]; 4 (herbicidal effect of not less than 70% by weight and less than 90% by weight) in series [10]. For the same compound, the “Herbicidal activity Digitaria adscendens” value in series [5] is 4 (herbicidal effect of not less than 70% by weight and less than 90% by weight); in [11], 4 (herbicidal effect of not less than 70% by weight and less than 90% by weight). Besides, the “Herbicidal activity Triticum aestivum” value in series [6] was 0 (herbicidal effect of not less than 0% by weight and less than 10% by weight); in series [12], 0 (herbicidal effect of not less than 0% by weight and less than 10% by weight). Besides, the “Herbicidal activity Glycine max” value was 0 (herbicidal effect of not less than 0% by weight and less than 10% by weight) in series [7]; 0 (herbicidal effect of not less than 0% by weight and less than 10% by weight) in [13]. The “Herbicidal activity Ammannia multiflora” value in series [14] is 3 (herbicidal effect of not less than 50% by weight and less than 70% by weight). The “Herbicidal activity Monochoria vaginalis” value in series [15] is 5 (herbicidal effect of not less than 90% by weight). The “Herbicidal activity Scirpus juncoides” value in series [16] is 4 (herbicidal effect of not less than 70% by weight and less than 90% by weight). In [17], the “Herbicidal activity Oryza sativa” value is 0 (herbicidal effect of not less than 0% by weight and less than 10% by weight).

Regarding `COC=C(Cn1nc(-c2ccc(Cl)cc2Cl)c(Cl)c1C)C(=O)OC` [Compound 21], in series [1], the “Herbicidal activity Echinochloa spp.” value is on record as 5 (herbicidal effect of not less than 90% by weight). In addition, the “Herbicidal activity Stellaria media” value in series [2] was 5 (herbicidal effect of not less than 90% by weight); in [8] it was 4 (herbicidal effect of not less than 70% by weight and less than 90% by weight). In addition, the “Herbicidal activity Setaria viridis” value is 4 (herbicidal effect of not less than 70% by weight and less than 90% by weight) in [3]; 4 (herbicidal effect of not less than 70% by weight and less than 90% by weight) in series [9]. Further, the “Herbicidal activity Chenopodium album” value in series [4] is 5 (herbicidal effect of not less than 90% by weight); in [10], 4 (herbicidal effect of not less than 70% by weight and less than 90% by weight). Besides, the “Herbicidal activity Digitaria adscendens” value in series [5] is 5 (herbicidal effect of not less than 90% by weight); in series [11], 4 (herbicidal effect of not less than 70% by weight and less than 90% by weight). Also, the “Herbicidal activity Triticum aestivum” value was 0 (herbicidal effect of not less than 0% by weight and less than 10% by weight) in [6]; 0 (herbicidal effect of not less than 0% by weight and less than 10% by weight) in [12]. The “Herbicidal activity Glycine max” value in [7] was 0 (herbicidal effect of not less than 0% by weight and less than 10% by weight); in [13], 1 (herbicidal effect of not less than 10% by weight and less than 30% by weight). The “Herbicidal activity Ammannia multiflora” value in series [14] was 5 (herbicidal effect of not less than 90% by weight). In addition, in series [15], the “Herbicidal activity Monochoria vaginalis” value is given as 5 (herbicidal effect of not less than 90% by weight). Also, in [16], the “Herbicidal activity Scirpus juncoides” value was 4 (herbicidal effect of not less than 70% by weight and less than 90% by weight). In series [17], the “Herbicidal activity Oryza sativa” value was 0 (herbicidal effect of not less than 0% by weight and less than 10% by weight).

Regarding `COC=C(Cn1nc(-c2cc(C)ccc2C)cc1C)C(=O)OC` [Compound 5], the “Herbicidal activity Stellaria media” value in series [2] is 4 (herbicidal effect of not less than 70% by weight and less than 90% by weight); in series [8], 4 (herbicidal effect of not less than 70% by weight and less than 90% by weight). In addition, the “Herbicidal activity Setaria viridis” value was 4 (herbicidal effect of not less than 70% by weight and less than 90% by weight) in series [3]; 4 (herbicidal effect of not less than 70% by weight and less than 90% by weight) in [9]. In addition, the “Herbicidal activity Chenopodium album” value is 5 (herbicidal effect of not less than 90% by weight) in [4]; 4 (herbicidal effect of not less than 70% by weight and less than 90% by weight) in series [10]. Further, the “Herbicidal activity Digitaria adscendens” value in series [5] is 4 (herbicidal effect of not less than 70% by weight and less than 90% by weight); in [11], 5 (herbicidal effect of not less than 90% by weight). The “Herbicidal activity Triticum aestivum” value in series [6] was 0 (herbicidal effect of not less than 0% by weight and less than 10% by weight); in series [12], 0 (herbicidal effect of not less than 0% by weight and less than 10% by weight). Further, the “Herbicidal activity Glycine max” value is 0 (herbicidal effect of not less than 0% by weight and less than 10% by weight) in series [7]; 0 (herbicidal effect of not less than 0% by weight and less than 10% by weight) in [13]. Further, in [14], the “Herbicidal activity Ammannia multiflora” value is 3 (herbicidal effect of not less than 50% by weight and less than 70% by weight). In addition, the “Herbicidal activity Monochoria vaginalis” value in [15] is listed as 5 (herbicidal effect of not less than 90% by weight). Also, the “Herbicidal activity Scirpus juncoides” value in series [16] was 3 (herbicidal effect of not less than 50% by weight and less than 70% by weight). Further, the “Herbicidal activity Oryza sativa” value in series [17] was 0 (herbicidal effect of not less than 0% by weight and less than 10% by weight).
